Source: patent US11884627B2, “Compounds and compositions for treating conditions associated with LPA receptor activity” (Lhotse Bio, Inc., priority 2022, dated 2024)
Like-named read-outs stand apart in the source and are kept apart here.

Target: T1, human LPA1 (Homo sapiens, UniProt Q92633)
T1 construct: expressed in transfected cells; host or cells: CHO-K1
Test: In vitro LPA1 calcium flux antagonist assay - Bioduro protocol
Type: cell-based
Conditions: CHO-K1 cells overexpressing human LPA1 and G15a, LPA challenge at EC80
Procedure, shortened: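 CHO-K1 cells overexpressing human LPA1 and G15a, serum-starved 4 h, loaded with Fluo-8 AM plus 2.5 mM probenecid in HBSS/20 mM Hepes for 30 min at 37 °C. Compound preincubated 30 min, then LPA challenge at EC80; FLIPR calcium signal, % inhibition relative to DMSO and LPA controls.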

[1] = calcium mobilization on FLIPR Tetra, read-out: IC50
[2] = Table B3, read-out: Activity (IC50 class)

T1 sequence (Q92633 whole entry): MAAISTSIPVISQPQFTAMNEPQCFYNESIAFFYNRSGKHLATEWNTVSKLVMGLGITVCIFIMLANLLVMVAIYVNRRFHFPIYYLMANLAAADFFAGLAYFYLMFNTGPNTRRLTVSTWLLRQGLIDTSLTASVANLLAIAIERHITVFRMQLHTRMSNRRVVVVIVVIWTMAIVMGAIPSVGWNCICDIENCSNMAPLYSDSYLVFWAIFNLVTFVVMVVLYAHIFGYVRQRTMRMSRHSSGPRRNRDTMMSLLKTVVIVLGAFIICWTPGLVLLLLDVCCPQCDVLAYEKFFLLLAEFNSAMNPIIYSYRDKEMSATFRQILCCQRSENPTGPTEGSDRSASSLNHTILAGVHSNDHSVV

Structure (SMILES)	IC50 [1]	IC50 [2]
CCOc1ccnc(-c2ccc(NC3(C(=O)O)CCOCC3)cc2COC2CC2)c1C(F)F [Compound 323]	833 nM	100 to 1000 nM
CCOc1cc(OC)cc(-c2ccc(NC3(C(=O)O)CCOCC3)cc2COC2CC2)n1 [Compound 324]	> 10000 nM	> 1000 nM
O=C(O)C1(Nc2ccc(-c3cccc(OC4CC4)c3C(F)F)c(COC3CC3)c2)CC1 [Compound 325]	59.6 nM	< 100 nM
CCCc1cccc(-c2ccc(NC3(C(=O)O)CCOCC3)cc2COC2CC2)c1F [Compound 326]	124 nM	100 to 1000 nM
CCc1cccc(-c2ccc(NC3(C(=O)O)CCOCC3)cc2COC2CC2)c1F [Compound 327]	412 nM	100 to 1000 nM
Cc1cccc(-c2ccc(NC3(C(=O)O)CCOCC3)cc2COC2CC2)c1F [Compound 328]	> 10000 nM	> 1000 nM
CCOc1cc(-c2ccc(NC3(C(=O)O)CCOCC3)cc2COC2CC2)cc(OC)c1C [Compound 329]	61.9 nM	< 100 nM
COc1cc(OC2CC2)cc(-c2ccc(NC3(C(=O)O)CCOCC3)cc2COC2CC2)c1 [Compound 332]	139 nM	< 100 nM
CCCOCc1cc(NC2(C(=O)O)CCOCC2)ccc1-c1cc(OC)c(C)c(OC)c1F [Compound 334]	45.2 nM	< 100 nM
COc1cc(-c2ccc(NC3(C(=O)O)CCOCC3)cc2COCC(C)C)c(F)c(OC)c1C [Compound 336]	18.8 nM	< 100 nM
CCOc1cc(OC)cc(-c2ccc(NC3(C(=O)O)CC3)cc2COC2CC2)c1F [Compound 337]	315 nM	100 to 1000 nM
CCc1nccc(-c2ccc(NC3(C(=O)O)CCOCC3)cc2COC2CC2)c1F [Compound 339]	85.3 nM	< 100 nM
COc1cc(-c2ccc(NC3(C(=O)O)CCOCC3)cc2COC2CCCC2)cc(OC2CC2)c1C [Compound 340]	26.1 nM	< 100 nM
COc1cc(-c2ccc(NC3(C(=O)O)CCOCC3)cc2COC2CC2)cc(OC2CC2)c1C [Compound 341]	214 nM	100 to 1000 nM
COc1cc(-c2ccc(NC3(C(=O)O)CCOCC3)cc2COC2CC2)c(F)c(OC)c1C#N [Compound 342]	19.7 nM	< 100 nM
COc1cc(-c2ccc(OC3(C(=O)O)CCOCC3)cc2COC2CC2)c(F)c(OC)c1C [Compound 343]	1130 nM	> 1000 nM
COc1cc(OC2CC2)c(F)c(-c2ccc(OC3(C(=O)O)CCOCC3)cc2COC2CC2)c1 [Compound 344]	106 nM	100 to 1000 nM
COc1cc(-c2ccc(NC3(C(=O)O)CCC(F)(F)CC3)cc2COC2CC2)c(F)c(OC)c1C [Compound 347]	23.5 nM	< 100 nM
COc1cc(-c2ccc(NC3(C(=O)O)CCC(F)(F)CC3)cc2COC2CC2)cc(OC)c1C [Compound 348]	69.5 nM	< 100 nM
CCOCc1cc(NC2(C(=O)O)CCOCC2)ccc1-c1cc(OC)c(C)c(OC)c1F [Compound 350]	4320 nM	> 1000 nM

Structure (SMILES)	IC50 [1]	IC50 [2]
COc1cc(-c2ccc(NC3(C(=O)O)CCOCC3)cc2COC(C)C)c(F)c(OC)c1C [Compound 352]	75 nM	< 100 nM
COc1cc(-c2ccc(OC3(C(=O)O)CCOCC3)cc2COC2CC2)c(C)c(OC)c1C [Compound 354]	35.5 nM	< 100 nM
CCOc1cc(OC)cc(-c2ccc(NC3(C(=O)O)CCCCC3)cc2COC2CC2)c1F [Compound 357]	30.3 nM	< 100 nM
CCOc1cccc(-c2ccc(NC3(C(=O)O)CC3)cc2COC2CC2)c1C(F)F [Compound 359]	49.8 nM	< 100 nM
CCOc1cccc(-c2ccc(NC3(C(=O)O)CC3)cc2COC2CC2)c1C [Compound 360]	75.5 nM	< 100 nM
CCOc1c(C)c(OC)cc(-c2ccc(NC3(C(=O)O)CC3)cc2COC2CC2)c1F [Compound 361]	75.6 nM	< 100 nM
COc1cc(-c2ccc(NC3(C(=O)O)CCC3)cc2COC2CC2)c(F)c(OC)c1C [Compound 362]	356 nM	100 to 1000 nM
CCOc1cc(OC)cc(-c2ccc(NC3(C(=O)O)CCOCC3)cc2COC2CCCC2)n1 [Compound 363]	4850 nM	> 1000 nM
COc1cc(-c2ccc(NC3(C(=O)O)CCOCC3)cc2COCC2CC2)c(F)c(OC)c1C [Compound 364]	82.9 nM	< 100 nM
COc1cc(-c2ccc(NC3(C(=O)O)CC(F)(F)C3)cc2COC2CC2)c(F)c(OC)c1C [Compound 366]	55 nM	< 100 nM
CCOc1cc(OC)cc(-c2ccc(NC3(C(=O)O)CC(F)(F)C3)cc2COC2CC2)c1F [Compound 367]	33.2 nM	< 100 nM
CCOc1c(C)ccc(-c2ccc(NC3(C(=O)O)CC3)cc2COC2CC2)c1C [Compound 368]	40.7 nM	< 100 nM
CCOc1c(C)ccc(-c2ccc(OC3(C(=O)O)CCOCC3)cc2COC2CC2)c1C [Compound 369]	44.8 nM	< 100 nM
CCOc1cccc(-c2ccc(OC3(C(=O)O)CCOCC3)cc2COC2CC2)c1C(F)F [Compound 371]	22.3 nM	< 100 nM
Cc1c(OC2CC2)cccc1-c1ccc(OC2(C(=O)O)CCOCC2)cc1COC1CC1 [Compound 372]	57.4 nM	< 100 nM
CCOc1cccc(-c2ccc(OC3(C(=O)O)CCC3)cc2COC2CC2)c1C(F)F [Compound 375]	24.3 nM	< 100 nM
CCOc1cccc(-c2ccc(OC3(C(=O)O)CCC3)cc2COC2CC2)c1 [Compound 377]	> 10000 nM	> 1000 nM
COc1cc(OC2CC2)cc(-c2ccc(OC3(C(=O)O)CCOCC3)cc2COC2CCCC2)c1 [Compound 378]	834 nM	100 to 1000 nM
CCOc1cc(-c2ccc(OC3(C(=O)O)CCOCC3)cc2COC2CCCC2)cc(OC)c1C [Compound 379]	67.3 nM	< 100 nM
CCOc1cc(OC)cc(-c2ccc(C3(C(=O)O)CC3)cc2COC2CC2)c1F [Compound 382]	> 10000 nM	> 1000 nM

The next lines start with the values.

IC50 [1]	IC50 [2]	Structure (SMILES)
5.9 nM	< 100 nM	O=C(O)C1(Nc2ccc(-c3cccc(OC4CC4)c3C(F)F)c(COC3CC3)c2)CCOCC1 [Compound 322]
9.53 nM	< 100 nM	CCOc1cc(-c2ccc(NC3(C(=O)O)CCOCC3)cc2COC2CCCC2)cc(OC)c1C [Compound 330]
9.37 nM	< 100 nM	COc1cc(OC2CC2)cc(-c2ccc(NC3(C(=O)O)CCOCC3)cc2COC2CCCC2)c1 [Compound 331]
10.3 nM	< 100 nM	CCOc1cccc(-c2ccc(NC3(C(=O)O)CCC3)cc2COC2CC2)c1C(F)F [Compound 333]
5.56 nM	< 100 nM	CCCCOCc1cc(NC2(C(=O)O)CCOCC2)ccc1-c1cc(OC)c(C)c(OC)c1F [Compound 335]
17.2 nM	< 100 nM	CCOc1nccc(-c2ccc(NC3(C(=O)O)CCOCC3)cc2COC2CC2)c1C(F)F [Compound 338]
7.24 nM	< 100 nM	COc1cc(OC2CC2)c(F)c(-c2ccc(NC3(C(=O)O)CCC(F)(F)CC3)cc2COC2CC2)c1 [Compound 346]
14.2 nM	< 100 nM	COc1cc(-c2ccc(NC3(C(=O)O)CCC(F)(F)CC3)cc2COC2CCCC2)cc(OC)c1C [Compound 349]
4.63 nM	< 100 nM	COc1cc(-c2ccc(NC3(C(=O)O)CCOCC3)cc2COCCC(C)C)c(F)c(OC)c1C [Compound 351]
8.39 nM	< 100 nM	COc1cc(-c2ccc(NC3(C(=O)O)CCOCC3)cc2COCC2CCC2)c(F)c(OC)c1C [Compound 353]
5.37 nM	< 100 nM	CCOc1cccc(-c2ccc(NC3(C(=O)O)CCOCC3)cc2COC2CC2)c1C(F)(F)F [Compound 358]
18.7 nM	< 100 nM	COc1cc(-c2ccc(OC3(C(=O)O)CCOCC3)cc2COC2CC2)c(Cl)c(OC)c1C [Compound 365]
1.2 nM	< 100 nM	CCOc1cccc(-c2ccc(NC3(C(=O)O)CCOCC3)cc2CCC2CC2)c1F [Compound 373]
14.6 nM	< 100 nM	CCOc1cccc(-c2ccc(OC3(C(=O)O)CCOCC3)cc2COC2CC2)c1Cl [Compound 374]
1.03 nM	< 100 nM	CCOc1cccc(-c2ccc(NC3(C(=O)O)CCCC3)cc2COC2CC2)c1C(F)F [Compound 376]
17.5 nM	< 100 nM	CCOc1c(C)ccc(-c2ccc(NC3(C(=O)O)CCOCC3)cc2COC2CC2)c1F [Compound 381]
0.847 nM	< 100 nM	CCOc1cccc(-c2ccc(NC3(C(=O)O)CCC(F)(F)CC3)cc2COC2CC2)c1C [Compound 383]
0.803 nM	< 100 nM	CCOc1cccc(-c2ccc(NC3(C(=O)O)CCC(F)(F)CC3)cc2COC2CC2)c1C(F)F [Compound 384]
0.633 nM	< 100 nM	CCOc1cccc(-c2ccc(NC3(C(=O)O)CCC(F)(F)CC3)cc2COC2CC2)c1Cl [Compound 385]
3.84 nM	< 100 nM	O=C(O)C1(Nc2ccc(-c3cccc(OC4CC4)c3Cl)c(COC3CC3)c2)CCC(F)(F)CC1 [Compound 386]
4.39 nM	< 100 nM	Cc1c(OC2CC2)cccc1-c1ccc(NC2(C(=O)O)CCC(F)(F)CC2)cc1COC1CC1 [Compound 387]
6.2 nM	< 100 nM	CCOc1cc(OC)cc(-c2ccc(NC3(C(=O)O)CCC(F)(F)CC3)cc2COC2CC2)c1F [Compound 388]
0.772 nM	< 100 nM	O=C(O)C1(Nc2ccc(-c3cccc(OC4CC4)c3C(F)F)c(COC3CC3)c2)CCC(F)(F)CC1 [Compound 389]
0.658 nM	< 100 nM	CCCCOCc1cc(NC2(C(=O)O)CCOCC2)ccc1-c1cc(OC)cc(OCC)c1F [Compound 390]
